Measurements reported in patent publication US10059717B2, “Urea compounds containing 3,4-dihydropyrimido[4,5-D]pyrimidin-2(1H)-one skeleton as protein kinase inhibitors” (KOREA INSTITUTE OF SCIENCE AND TECHNOLOGY, priority 2016, dated 2018).

What was measured:
Test in all cases: Kinase panel biochemical assay
Conditions in all cases: 1 μM single concentration, read-out: % residual enzyme activity
ABL2/ARG = ABL2/ARG (Homo sapiens, UniProt P42684)
Method in brief: (§1)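 Values reflect one-concentration (1 μM) biochemical testing; inhibition is derived from the percent of kinase activity that remains.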

CSK = CSK (Homo sapiens, UniProt P41240)
Method in brief: as §1

EPHA3 = EPHA3 (Homo sapiens, UniProt P29320)
Method in brief: as §1

EPHA7 = EPHA7 (Homo sapiens, UniProt Q15375)
Method in brief: as §1

EPHB1 = EPHB1 (Homo sapiens, UniProt P54762)
Method in brief: as §1

EPHB3 = EPHB3 (Homo sapiens, UniProt P54753)
Method in brief: as §1

ERBB2/HER2 = ERBB2/HER2 (Homo sapiens, UniProt P04626)
Method in brief: as §1

FGFR3 = FGFR3 (Homo sapiens, UniProt P22607)
Method in brief: as §1

FGFR4 = FGFR4 (Homo sapiens, UniProt P22455)
Method in brief: as §1

FLT1NEGFR1 = FLT1NEGFR1 (Homo sapiens, UniProt P17948)
Method in brief: as §1

FLT3 = FLT3 (Homo sapiens, UniProt P36888)
Method in brief: as §1

FLT4NEGFR3 = FLT4NEGFR3 (Homo sapiens, UniProt P35916)
Method in brief: as §1

FYN = FYN (Homo sapiens, UniProt P06241)
Method in brief: as §1

GCK/MAP4K2 = GCK/MAP4K2 (Homo sapiens, UniProt Q12851)
Method in brief: as §1

HIPK4 = HIPK4 (Homo sapiens, UniProt Q8NE63)
Method in brief: as §1

LCK = LCK (Homo sapiens, UniProt P06239)
Method in brief: as §1

LIMK2 = LIMK2 (Homo sapiens, UniProt P53671)
Method in brief: as §1

MLCK2/MYLK2 = MLCK2/MYLK2 (Homo sapiens, UniProt Q9H1R3)
Method in brief: as §1

MLK2/MAP3K10 = MLK2/MAP3K10 (Homo sapiens, UniProt Q02779)
Method in brief: as §1

MLK3/MAP3K11 = MLK3/MAP3K11 (Homo sapiens, UniProt Q16584)
Method in brief: as §1

NEK11 = NEK11 (Homo sapiens, UniProt Q8NG66)
Method in brief: as §1

P38a/MAPK14 = P38a/MAPK14 (Homo sapiens, UniProt Q16539)
Method in brief: as §1

PDGFRa = PDGFRa (Homo sapiens, UniProt P16234)
Method in brief: as §1

PEAK1 = PEAK1 (Homo sapiens, UniProt Q9H792)
Method in brief: as §1

PYK2 = PYK2 (Homo sapiens, UniProt Q14289)
Method in brief: as §1

SIK3 = SIK3 (Homo sapiens, UniProt Q9Y2K2)
Method in brief: as §1

SLK/STK2 = SLK/STK2 (Homo sapiens, UniProt Q9H2G2)
Method in brief: as §1

TIE2/TEK = TIE2/TEK (Homo sapiens, UniProt Q02763)
Method in brief: as §1

TRKA = TRKA (Homo sapiens, UniProt P04629)
Method in brief: as §1

YES/YES1 = YES/YES1 (Homo sapiens, UniProt P07947)
Method in brief: as §1

Measured: remaining activity at 1 µM

Chain of CSK (P41240 whole entry): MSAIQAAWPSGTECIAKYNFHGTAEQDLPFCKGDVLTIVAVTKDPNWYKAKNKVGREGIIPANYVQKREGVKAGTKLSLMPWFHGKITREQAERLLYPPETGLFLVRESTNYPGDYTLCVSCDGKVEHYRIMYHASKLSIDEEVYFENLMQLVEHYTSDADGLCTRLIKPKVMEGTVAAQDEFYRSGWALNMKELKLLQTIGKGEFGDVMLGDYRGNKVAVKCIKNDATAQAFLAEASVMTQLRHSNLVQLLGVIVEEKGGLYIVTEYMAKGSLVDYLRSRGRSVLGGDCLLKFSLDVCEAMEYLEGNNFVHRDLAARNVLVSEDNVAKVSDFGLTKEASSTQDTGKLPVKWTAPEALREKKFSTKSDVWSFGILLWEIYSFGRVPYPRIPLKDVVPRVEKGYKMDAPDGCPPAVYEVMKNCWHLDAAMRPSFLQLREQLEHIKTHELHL
Chain of FLT3 (P36888 27-993): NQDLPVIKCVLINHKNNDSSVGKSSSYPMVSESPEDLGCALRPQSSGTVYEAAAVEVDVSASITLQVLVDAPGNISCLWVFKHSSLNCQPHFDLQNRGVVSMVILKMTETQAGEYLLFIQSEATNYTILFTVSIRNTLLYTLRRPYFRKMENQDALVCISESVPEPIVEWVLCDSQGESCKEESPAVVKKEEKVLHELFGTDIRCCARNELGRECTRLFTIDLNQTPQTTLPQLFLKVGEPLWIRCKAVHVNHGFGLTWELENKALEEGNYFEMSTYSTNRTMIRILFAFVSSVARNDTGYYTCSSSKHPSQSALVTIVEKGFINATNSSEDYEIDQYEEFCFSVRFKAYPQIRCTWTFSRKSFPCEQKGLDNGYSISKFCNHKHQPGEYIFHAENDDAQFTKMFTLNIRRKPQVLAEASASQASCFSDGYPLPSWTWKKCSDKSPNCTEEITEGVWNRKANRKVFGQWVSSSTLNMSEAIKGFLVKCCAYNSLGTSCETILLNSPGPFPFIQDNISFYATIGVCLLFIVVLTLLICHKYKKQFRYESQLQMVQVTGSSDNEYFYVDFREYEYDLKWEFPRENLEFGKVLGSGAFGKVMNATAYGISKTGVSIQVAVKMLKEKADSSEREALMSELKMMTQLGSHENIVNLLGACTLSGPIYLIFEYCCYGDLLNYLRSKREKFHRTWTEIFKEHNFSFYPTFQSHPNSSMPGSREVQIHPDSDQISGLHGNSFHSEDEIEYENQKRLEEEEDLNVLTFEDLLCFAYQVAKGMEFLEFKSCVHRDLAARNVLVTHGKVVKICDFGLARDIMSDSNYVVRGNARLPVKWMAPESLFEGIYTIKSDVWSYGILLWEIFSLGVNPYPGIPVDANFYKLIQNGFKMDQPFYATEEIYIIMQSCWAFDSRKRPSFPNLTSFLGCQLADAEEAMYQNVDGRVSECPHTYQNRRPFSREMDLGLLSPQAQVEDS
Chain of GCK/MAP4K2 (Q12851 whole entry): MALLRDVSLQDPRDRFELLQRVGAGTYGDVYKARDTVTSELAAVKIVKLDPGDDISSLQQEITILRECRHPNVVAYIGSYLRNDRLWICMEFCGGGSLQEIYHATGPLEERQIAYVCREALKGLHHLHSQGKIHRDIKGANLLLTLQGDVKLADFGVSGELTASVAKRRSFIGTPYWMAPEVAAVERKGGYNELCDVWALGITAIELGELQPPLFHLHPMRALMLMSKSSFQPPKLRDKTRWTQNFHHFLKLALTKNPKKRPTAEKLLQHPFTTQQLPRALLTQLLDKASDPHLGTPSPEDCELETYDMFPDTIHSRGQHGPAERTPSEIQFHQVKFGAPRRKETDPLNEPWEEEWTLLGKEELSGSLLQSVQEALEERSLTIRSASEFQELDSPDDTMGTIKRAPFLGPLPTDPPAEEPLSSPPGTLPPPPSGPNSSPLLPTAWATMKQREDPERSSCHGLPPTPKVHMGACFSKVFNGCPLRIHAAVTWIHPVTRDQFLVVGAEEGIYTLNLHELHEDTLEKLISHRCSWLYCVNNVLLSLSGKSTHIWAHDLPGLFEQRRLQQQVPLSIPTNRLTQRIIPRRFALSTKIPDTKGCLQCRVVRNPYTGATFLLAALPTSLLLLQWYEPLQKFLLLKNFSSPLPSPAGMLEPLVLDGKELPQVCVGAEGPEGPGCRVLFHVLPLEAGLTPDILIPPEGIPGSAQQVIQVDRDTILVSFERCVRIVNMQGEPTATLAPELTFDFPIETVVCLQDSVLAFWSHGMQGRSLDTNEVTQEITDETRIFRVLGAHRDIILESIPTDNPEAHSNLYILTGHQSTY
Chain of MLK2/MAP3K10 (Q02779 whole entry): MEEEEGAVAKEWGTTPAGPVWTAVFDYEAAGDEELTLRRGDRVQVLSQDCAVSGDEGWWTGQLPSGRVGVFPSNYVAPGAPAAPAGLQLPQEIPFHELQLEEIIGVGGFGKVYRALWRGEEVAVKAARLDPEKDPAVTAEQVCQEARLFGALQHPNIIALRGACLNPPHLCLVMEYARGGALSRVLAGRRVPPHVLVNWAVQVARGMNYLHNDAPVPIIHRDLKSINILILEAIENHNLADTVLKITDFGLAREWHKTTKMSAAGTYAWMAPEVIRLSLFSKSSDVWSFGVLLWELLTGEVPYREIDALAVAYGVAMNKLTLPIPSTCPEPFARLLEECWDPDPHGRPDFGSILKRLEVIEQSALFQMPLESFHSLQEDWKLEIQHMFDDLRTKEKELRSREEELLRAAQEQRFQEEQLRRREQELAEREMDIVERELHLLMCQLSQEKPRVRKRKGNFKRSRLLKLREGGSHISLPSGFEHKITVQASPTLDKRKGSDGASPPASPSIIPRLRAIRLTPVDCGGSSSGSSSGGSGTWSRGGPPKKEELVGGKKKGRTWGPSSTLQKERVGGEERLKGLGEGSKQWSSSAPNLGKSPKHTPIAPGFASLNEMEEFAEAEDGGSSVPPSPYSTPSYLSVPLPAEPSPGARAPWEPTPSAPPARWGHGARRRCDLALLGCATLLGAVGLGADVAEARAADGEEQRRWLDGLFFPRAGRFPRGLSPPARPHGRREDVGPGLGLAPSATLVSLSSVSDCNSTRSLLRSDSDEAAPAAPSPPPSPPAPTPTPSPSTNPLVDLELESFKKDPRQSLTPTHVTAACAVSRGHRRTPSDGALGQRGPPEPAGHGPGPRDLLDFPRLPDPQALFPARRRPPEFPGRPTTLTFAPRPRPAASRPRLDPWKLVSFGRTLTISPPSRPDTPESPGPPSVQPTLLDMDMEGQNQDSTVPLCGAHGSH
Chain of P38a/MAPK14 (Q16539 whole entry): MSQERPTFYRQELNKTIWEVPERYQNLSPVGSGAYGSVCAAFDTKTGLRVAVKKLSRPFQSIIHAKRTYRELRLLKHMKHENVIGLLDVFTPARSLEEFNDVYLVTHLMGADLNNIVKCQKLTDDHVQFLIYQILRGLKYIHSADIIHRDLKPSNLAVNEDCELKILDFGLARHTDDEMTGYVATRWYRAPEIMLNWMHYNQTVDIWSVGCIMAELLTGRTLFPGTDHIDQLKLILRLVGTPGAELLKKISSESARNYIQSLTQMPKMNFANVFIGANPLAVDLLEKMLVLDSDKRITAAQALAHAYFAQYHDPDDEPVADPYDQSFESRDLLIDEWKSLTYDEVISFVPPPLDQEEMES
Chain of NEK11 (Q8NG66 whole entry): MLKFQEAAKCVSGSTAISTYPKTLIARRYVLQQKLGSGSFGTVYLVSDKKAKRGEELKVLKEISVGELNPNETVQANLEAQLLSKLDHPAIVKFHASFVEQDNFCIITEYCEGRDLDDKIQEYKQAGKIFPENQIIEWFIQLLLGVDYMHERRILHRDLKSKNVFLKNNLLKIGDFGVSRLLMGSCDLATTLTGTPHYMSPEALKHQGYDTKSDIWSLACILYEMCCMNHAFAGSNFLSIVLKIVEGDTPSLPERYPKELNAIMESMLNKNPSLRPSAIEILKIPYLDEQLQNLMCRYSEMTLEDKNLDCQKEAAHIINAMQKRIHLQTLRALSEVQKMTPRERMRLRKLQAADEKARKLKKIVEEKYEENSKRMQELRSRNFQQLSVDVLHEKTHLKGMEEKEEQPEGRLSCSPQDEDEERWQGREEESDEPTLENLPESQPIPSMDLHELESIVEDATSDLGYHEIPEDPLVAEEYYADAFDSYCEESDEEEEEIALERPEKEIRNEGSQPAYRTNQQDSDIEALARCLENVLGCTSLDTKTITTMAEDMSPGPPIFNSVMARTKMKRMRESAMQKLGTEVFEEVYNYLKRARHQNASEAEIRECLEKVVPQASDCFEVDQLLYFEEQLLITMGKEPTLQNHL
Chain of FGFR4 (P22455 22-802): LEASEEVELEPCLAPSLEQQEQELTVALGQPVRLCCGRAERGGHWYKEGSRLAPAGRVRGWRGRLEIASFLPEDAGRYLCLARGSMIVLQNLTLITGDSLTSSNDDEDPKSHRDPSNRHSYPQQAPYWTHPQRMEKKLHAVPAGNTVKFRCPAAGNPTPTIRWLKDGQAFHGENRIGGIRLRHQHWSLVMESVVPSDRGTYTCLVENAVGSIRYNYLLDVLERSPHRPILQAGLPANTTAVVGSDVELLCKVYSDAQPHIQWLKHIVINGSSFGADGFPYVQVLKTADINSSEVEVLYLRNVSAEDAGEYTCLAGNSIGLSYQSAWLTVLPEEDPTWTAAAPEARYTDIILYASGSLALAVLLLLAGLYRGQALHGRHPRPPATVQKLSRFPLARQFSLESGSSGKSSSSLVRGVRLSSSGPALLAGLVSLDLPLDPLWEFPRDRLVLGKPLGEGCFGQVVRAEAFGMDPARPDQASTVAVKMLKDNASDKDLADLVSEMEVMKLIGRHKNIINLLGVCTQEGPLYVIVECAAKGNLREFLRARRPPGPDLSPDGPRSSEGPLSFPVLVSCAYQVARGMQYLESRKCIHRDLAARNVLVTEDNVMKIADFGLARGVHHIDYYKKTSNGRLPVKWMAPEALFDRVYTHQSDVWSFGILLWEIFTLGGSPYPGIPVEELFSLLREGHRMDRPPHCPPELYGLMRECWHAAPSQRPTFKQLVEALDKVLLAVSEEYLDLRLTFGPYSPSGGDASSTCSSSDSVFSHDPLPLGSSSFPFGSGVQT

CCN1CCN(C(=O)c2ccc(Nc3ncc4c(n3)N(C)C(=O)N(c3cc(NC(=O)Nc5ccccc5OC)ccc3C)C4)cn2)CC1 [Compound No. 14, 1-(3-(7-((6-(4-ethylpiperazin-1-carbonyl)pyridin-3-yl)amino)-1-methyl-2-oxo-1,4-dihydropyrimido[4,5-d]pyrimidin-3(2H)-yl)-4-methylphenyl)-3-(2-methoxyphenyl)urea]
≤ 30%: all assays above
